Measured values from PubChem BioAssay (NCI).
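Method: 48-hour compound exposure of cells in 96-well plates, five concentrations, linear interpolation of endpoints. TGI denotes the concentration required for complete inhibition of growth.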

How the values were obtained:
Experiment in all cases: inhibition of tumour cell growth, NCI panel, 48 h
786-0 renal = test system: 786-0 renal
A549 NSCLC = test system: A549 NSCLC
ACHN renal = test system: ACHN renal
BT-549 breast = test system: BT-549 breast
CAKI-1 renal = test system: CAKI-1 renal
CCRF-CEM leukemia = test system: CCRF-CEM leukemia
COLO 205 colon = test system: COLO 205 colon
DU-145 prostate = test system: DU-145 prostate
EKVX NSCLC = test system: EKVX NSCLC
HCC-2998 colon = test system: HCC-2998 colon
HCT-15 colon = test system: HCT-15 colon
HL-60(TB) leukemia = test system: HL-60(TB) leukemia
HOP-62 NSCLC = test system: HOP-62 NSCLC
HOP-92 NSCLC = test system: HOP-92 NSCLC
HT29 colon = test system: HT29 colon
IGROV1 ovarian = test system: IGROV1 ovarian
K-562 leukemia = test system: K-562 leukemia
KM12 colon = test system: KM12 colon
LOX IMVI melanoma = test system: LOX IMVI melanoma
M14 melanoma = test system: M14 melanoma
MALME-3M melanoma = test system: MALME-3M melanoma
MCF7 breast = test system: MCF7 breast
MDA-MB-231 breast = test system: MDA-MB-231 breast
MDA-MB-435 = test system: MDA-MB-435
MOLT-4 leukemia = test system: MOLT-4 leukemia
NCI-H23 lung = test system: NCI-H23 lung
NCI-H460 lung = test system: NCI-H460 lung
NCI-H522 lung = test system: NCI-H522 lung
NCI/ADR-RES ovarian = test system: NCI/ADR-RES ovarian
OVCAR-5 ovarian = test system: OVCAR-5 ovarian
OVCAR-8 ovarian = test system: OVCAR-8 ovarian
PC-3 prostate = test system: PC-3 prostate
RPMI-8226 leukemia = test system: RPMI-8226 leukemia
SF-268 CNS = test system: SF-268 CNS
SF-295 CNS = test system: SF-295 CNS
SK-MEL-2 melanoma = test system: SK-MEL-2 melanoma
SK-MEL-28 melanoma = test system: SK-MEL-28 melanoma
SK-MEL-5 melanoma = test system: SK-MEL-5 melanoma
SN12C renal = test system: SN12C renal
SNB-19 CNS = test system: SNB-19 CNS
SNB-75 CNS = test system: SNB-75 CNS
SR leukemia = test system: SR leukemia
SW-620 colon = test system: SW-620 colon
TK-10 renal = test system: TK-10 renal
U251 CNS = test system: U251 CNS
UACC-257 melanoma = test system: UACC-257 melanoma
A498 renal = test system: A498 renal
HCT-116 colon = test system: HCT-116 colon
HS 578T breast = test system: HS 578T breast
NCI-H226 lung = test system: NCI-H226 lung
OVCAR-4 ovarian = test system: OVCAR-4 ovarian
RXF 393 renal = test system: RXF 393 renal
SF-539 CNS = test system: SF-539 CNS
SK-OV-3 ovarian = test system: SK-OV-3 ovarian
UO-31 renal = test system: UO-31 renal
OVCAR-3 ovarian = test system: OVCAR-3 ovarian
T-47D breast = test system: T-47D breast
UACC-62 melanoma = test system: UACC-62 melanoma

Measured: TGI

O=C(NCCn1ccnn1)Nc1ccccc1
not listed: A498 renal | HCT-116 colon | HS 578T breast | NCI-H226 lung | OVCAR-4 ovarian | RXF 393 renal | SF-539 CNS | SK-OV-3 ovarian | UO-31 renal | OVCAR-3 ovarian | T-47D breast | UACC-62 melanoma
> 100 µM: all other assays above

COc1cc(C(=O)O[C@H]2CCC3CCC2N3C)cc(OC)c1OC (stereo not given in full)
not listed: BT-549 breast | CAKI-1 renal | IGROV1 ovarian | NCI-H522 lung | PC-3 prostate | SK-MEL-2 melanoma | OVCAR-3 ovarian | T-47D breast | UACC-62 melanoma
> 100 µM: all other assays above

O=C(OCc1ccccc1)c1nc2ccccc2n1S(=O)(=O)c1ccccc1
not listed: MCF7 breast | NCI-H522 lung | SR leukemia
> 100 µM: all other assays above
